One block for each molecule: values may come before it.
How the values were obtained:
[1] = Stability studied on Caco-2 cells; assay type: in vitro ADME; settings: in comparison with trilaciclib
MOLM13 cells = test: Flow cytometric cell cycle analysis, MOLM13; assay type: cell-based; settings: increasing doses, 24 h
Experimental: Finally, we performed flow cytometric analysis with different concentrations of 15a in MV4-11 and MOLM13 (another FLT-ITD positive cell line) and K562 cell lines treated for 24 h (Figure 5).
Asynchronously growing cells were seeded into a 96-well plate and, after a preincubation period, treated with tested compounds for 24 h. The treated cells were stained directly (or after trypsinization for the adherent cells) with the 5× staining solution (17 mM trisodium citrate dihydrate, 0.5% IGEPAL CA-630, 7.5 mM spermine tetrahydrochloride, and 2.5 mM Tris; pH 7.6 containing […] propidium iodide). After the staining, DNA content was analyzed using flow cytometry using a 488 nm laser (BD FACS Verse with software BD FACSuite^TM, version 1.0.6). Cell cycle distribution was analyzed using ModFit LT (Verity Software House, version 5.0).

TTK = target: T1, TTK (Homo sapiens, UniProt P33981); test: Kinase selectivity panel at 1 µM (Eurofins), TTK; assay type: biochemical; settings: read-out: residual enzyme activity TTK
T1 construct: purchased Eurofins Discovery (France)
T1 sequence (P33981 1-857): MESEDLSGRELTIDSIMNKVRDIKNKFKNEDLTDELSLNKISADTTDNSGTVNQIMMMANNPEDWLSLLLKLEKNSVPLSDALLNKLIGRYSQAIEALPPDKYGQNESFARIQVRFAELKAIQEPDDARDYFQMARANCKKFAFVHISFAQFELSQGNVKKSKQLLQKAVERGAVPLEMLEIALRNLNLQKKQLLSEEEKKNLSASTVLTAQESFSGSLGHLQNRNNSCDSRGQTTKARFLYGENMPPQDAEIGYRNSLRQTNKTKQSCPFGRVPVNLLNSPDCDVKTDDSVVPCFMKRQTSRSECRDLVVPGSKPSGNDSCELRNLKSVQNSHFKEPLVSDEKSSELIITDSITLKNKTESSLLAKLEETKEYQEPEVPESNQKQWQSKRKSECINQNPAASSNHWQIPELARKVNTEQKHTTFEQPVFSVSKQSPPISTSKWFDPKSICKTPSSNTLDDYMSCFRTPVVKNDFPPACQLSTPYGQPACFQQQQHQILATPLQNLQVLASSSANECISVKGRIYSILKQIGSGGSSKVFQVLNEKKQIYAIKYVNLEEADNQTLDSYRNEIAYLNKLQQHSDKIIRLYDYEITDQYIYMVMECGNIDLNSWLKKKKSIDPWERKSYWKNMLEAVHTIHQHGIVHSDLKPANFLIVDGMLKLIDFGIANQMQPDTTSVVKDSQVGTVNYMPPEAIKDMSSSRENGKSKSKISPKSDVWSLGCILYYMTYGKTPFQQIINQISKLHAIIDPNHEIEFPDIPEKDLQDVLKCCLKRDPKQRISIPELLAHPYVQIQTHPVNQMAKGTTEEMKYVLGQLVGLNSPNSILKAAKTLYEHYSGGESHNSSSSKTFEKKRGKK
Experimental: Three representative compounds (14d, 14e, and 15a) were profiled in a 1 µM concentration against 30 kinases that were selected as known off-targets of approved CDK4/6 inhibitors. […] Additional sensitive kinases include STK16, EphA1, MEKK2, SRC, and MER (≤10% of residual enzyme activities), which are not targets of the structurally similar CDK4/6 inhibitor, trilaciclib. We also screened compound 15a, an analogue of 14d, bearing isopropyl at position 7 of the purine instead of the methyl group. This change rapidly diminished the potency against CDK4 (dropped to 90% of residual enzyme activity), but the preference for FLT3 remained (1st rank) (Figure 2).
CDK/cyclin complexes and FLT3 kinases were assayed as previously described. Protein kinase selectivity was evaluated at a single concentration (1 µM) by screening against 30 enzymes at Eurofins Discovery (France).

melting point: 110 to 112 °C
Structure (SMILES): Cn1c(=O)n(C2CCCC2)c2nc(Nc3ccc(N4CCNCC4)cc3)ncc21 [14d]

stability (Caco-2 cells) [1]: substantially higher stability
Structure (SMILES): Cn1c(=O)n(C2CCCCC2)c2nc(Nc3ccc(N4CCNCC4)cc3)ncc21 [14e]

remaining activity at 1 µM (TTK): ≤ 10%
Structure (SMILES): CC(C)n1c(=O)n(C2CCCC2)c2nc(Nc3ccc(N4CCNCC4)cc3)ncc21 [15a, 9-cyclopentyl-7-isopropyl-2-((4-(piperazin-1-yl)phenyl)amino)-7,9-dihydro-8H-purin-8-one]
cells in the G1 phase, MOLM13 (MOLM13 cells): up to 90%
